This note sets out measurements from US7179926B2, “Aryloxyalkylamine NK-1/SSRI inhibitors” (Bristol-Myers Squibb Company, priority 2004, dated 2007).

Assay [1] has as its target T1, neurokinin-1 (NK-1) receptor (Homo sapiens, UniProt P25103).
T1 construct: endogenously expresses the neurokinin-1 (NK-1) receptor; endogenous in cells; host or cells: U373 human glioblastoma-astrocytoma cells (membranes)
The assay is described as follows: NK-1 Binding assay ([125I] Substance P competition, U373 cell membranes). The following applies: Bolton Hunter labeled [125I] Substance P, 30 min at 20° C. Here is the method:
NK-1 Binding assay. U373 cells, a human glioblastoma-astrocytoma cell line that endogenously expresses the neurokinin-1 (NK-1) receptor, were grown in a monolayer culture at 37° C. in 5% CO2 and fed with Minimum Essential Medium (MEM) supplemented with 10% fetal bovine serum. Membranes were prepared as follows: Cells were washed twice with ice-cold phosphate-buffered saline (pH 7.4) and then incubated for 5–10 minutes with ice-cold 10 mM Tris buffer (pH 7.4) containing 5 mM EDTA. Cells were removed from plates, homogenized, and centrifuged at 32,000×g for 20 minutes. The resulting supernatant was discarded, and the pellet resuspended by homogenization in 50 mM Tris buffer (pH 7.4) containing 1 mM EDTA and centrifuged at 32,000×g for 20 minutes. The resulting supernatant was discarded, and the pellet resuspended by homogenization in NK-1 binding assay buffer (50 mM Tris-HCL (pH 7.4), 3 mM MnCl2, 200 μg/ml BSA, 5 μg/ml chymostatin, 40 μg/ml bacitracin and 4 μg/ml leupeptin).
On the day of an experiment the membrane preparation was thawed, homogenized and diluted with NK-1 binding assay buffer to the appropriate concentration. Competition binding assays were performed in 96 well plate format by incubating membranes (5–10 μg/well) with Bolton Hunter labeled [^125I] Substance P, at a concentration of […], and concentrations of drugs ranging from 10000 to 0.01 nM. Samples were incubated for 30 min at 20° C. then filtered through GF/B glass fiber filters (pretreated with 1% polyethyleneimine and 0.3% Triton X-100) using a Brandel cell harvester. The filters were then washed with 10 ml ice cold 50 mM Tris-HCL (pH 7.4) containing 3 mM MgCl2. Non-specific was defined in the presence of 2 μM L-733,060 (a non-peptide NK-1 antagonist). The amount of radioligand bound in the presence and absence of competitor was analyzed by plotting (−)log drug concentration versus the amount of radioligand specifically bound. The midpoint of the displacement curve (IC50, nM), signifies the potency. Ki values can be calculated using the method of Cheng and Prusoff (Cheng and Prusoff, Biochemical Pharmacology, Vol 22, pp. 3099–3108, Pergamon Press (1973)).

The target in assay [2] is T2, human serotonin transporters (Homo sapiens, UniProt P31645).
T2 construct: expressed in transfected cells
T2 sequence (P31645 whole entry): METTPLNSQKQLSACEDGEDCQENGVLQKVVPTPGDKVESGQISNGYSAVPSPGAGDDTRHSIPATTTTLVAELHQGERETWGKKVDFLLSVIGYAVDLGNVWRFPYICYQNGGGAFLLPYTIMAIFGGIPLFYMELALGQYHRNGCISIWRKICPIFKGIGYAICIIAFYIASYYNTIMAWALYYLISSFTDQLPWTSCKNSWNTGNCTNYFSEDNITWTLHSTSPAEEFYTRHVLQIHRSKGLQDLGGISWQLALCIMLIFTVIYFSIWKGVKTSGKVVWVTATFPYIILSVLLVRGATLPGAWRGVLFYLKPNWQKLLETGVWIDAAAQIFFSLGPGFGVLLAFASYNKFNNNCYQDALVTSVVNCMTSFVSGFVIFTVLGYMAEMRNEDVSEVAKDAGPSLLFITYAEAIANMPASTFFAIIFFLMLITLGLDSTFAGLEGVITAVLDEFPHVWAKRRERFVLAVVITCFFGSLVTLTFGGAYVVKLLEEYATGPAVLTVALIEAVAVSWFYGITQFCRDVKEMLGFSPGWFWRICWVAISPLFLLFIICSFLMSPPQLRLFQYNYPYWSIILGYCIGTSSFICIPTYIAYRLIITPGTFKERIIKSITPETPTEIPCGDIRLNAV
The assay is described as follows: Serotonin transporter binding assay ([3H]-citalopram competition, HEK-hSERT cell membranes). Particulars: 1 nM [3H]-citalopram, 1 hr at 25° C., read-out: SERT IC50. As for the experimental part:
Serotonin transporter binding assay. HEK-293 cells that stably express human serotonin transporters (HEK-hSERT cells) were grown at 37° C. in 5% CO2 as a monolayer in medium consisting of EMEM supplemented with 10% fetal bovine serum and G418 sulfate (500 μg/ml). To prepare membranes for radioligand binding experiments, cells were rinsed twice with phosphate-buffered saline (138 mM NaCl, 4.1 mM KCl, 5.1 mM Na2PO4, 1.5 mM KH2PO4, 11.1 mM glucose, pH 7.4). Cells were transferred from plates to polypropylene tubes (16×100 mm), centrifuged at 1,200×g for 5 min and were frozen at −80° C. until assay. Following centrifugation, pellets were resuspended by homogenization in buffer consisting of 50 mM Tris (pH 7.7 at 25° C.), 120 mM NaCl and 5 mM KCl and then centrifuged at 32,000×g for 10 min. Following centrifugation, supernatants were discarded and pellets were resuspended in buffer consisting of 50 mM Tris (pH 7.4 at 25° C.), 150 mM NaCl and 5 mM KCl. Membrane homogenates (200 μl/plate) were incubated with 1 nM [^3H]-citalopram (specific activity=85 Ci/mmol) and increasing concentrations of test compounds for 1 hr at 25° C. in a total volume of 250 μl. The assay buffer consisted of 50 mM Tris (pH 7.4 at 25° C.), 120 mM NaCl and 5 mM KCl (pH 7.4 with conc. HCl). Plates were incubated for 1 hr at 25° C., then filtered through 0.5% PEI treated Whatman GF/B filters using a Brandel cell harvester. Filters were washed three times with 3 ml of ice-cold tris wash buffer. Non-specific binding was defined with 10 μM fluoxetine. Amount of radioligand bound in the presence and absence of competitor was analyzed by plotting (−)log drug concentration versus the amount of radioligand specifically bound. The midpoint of the displacement curve (IC50, nM), signifies the potency. Ki values can be calculated using the method of Cheng and Prusoff (Cheng and Prusoff, Biochemical Pharmacology, Vol 22, pp. 3099–3108, Pergamon Press (1973)).

T1 sequence (P25103 whole entry): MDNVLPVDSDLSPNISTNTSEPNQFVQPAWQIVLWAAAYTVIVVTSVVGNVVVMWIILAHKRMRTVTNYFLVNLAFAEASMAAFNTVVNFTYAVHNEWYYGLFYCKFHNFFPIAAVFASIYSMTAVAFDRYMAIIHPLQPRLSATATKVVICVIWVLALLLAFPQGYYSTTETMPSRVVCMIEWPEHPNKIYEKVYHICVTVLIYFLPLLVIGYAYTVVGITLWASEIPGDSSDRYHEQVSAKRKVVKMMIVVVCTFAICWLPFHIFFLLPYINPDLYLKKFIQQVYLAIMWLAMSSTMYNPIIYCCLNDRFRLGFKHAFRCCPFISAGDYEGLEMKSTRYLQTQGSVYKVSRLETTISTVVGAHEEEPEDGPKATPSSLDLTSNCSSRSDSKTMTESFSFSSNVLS

For `Cc1ccc(C)c(C(O)(CCN)COCc2cc(C(F)(F)F)cc(C(F)(F)F)c2)c1` (stereo not shown) [Example 37, 1-(3,5-bis(trifluoromethyl)benzyloxy)-4-amino-2-(2,5-dimethylphenyl)butan-2-ol], the IC50 in assay [1] and in assay [2] was 1 to 100 nM each time.
As for `Cc1ccccc1C(O)(CCN)COCc1cc(C(F)(F)F)cc(C(F)(F)F)c1` (stereo not shown) [Example 43, 1-(3,5-bis(trifluoromethyl)benzyloxy)-4-amino-2-o-tolylbutan-2-ol], the IC50 in assay [1] and in assay [2] was 1 to 100 nM throughout.
On to `NCCC(O)(COCc1ccccc1Cl)c1ccccc1` (stereo not shown) [Example 50, 1-(2-chlorobenzyloxy)-4-amino-2-phenylbutan-2-ol], for which the IC50 was more than 300 nM in assay [1] and 1 to 100 nM in assay [2].
Consider `Cc1ccc(C(O)(CCN)COCc2cc(C(F)(F)F)cc(C(F)(F)F)c2)cc1C` (stereo not shown) [Example 32, 1-(3,5-bis(trifluoromethyl)benzyloxy)-4-amino-2-(3,4-dimethylphenyl)butan-2-ol], for which the IC50 in assay [1] and in assay [2] was 1 to 100 nM each time.
As for `NCCC(O)(COCc1cc(C(F)(F)F)cc(C(F)(F)F)c1)c1ccc(Cl)c(Cl)c1` (stereo not shown) [Example 10, 1-(3,5-bis(trifluoromethyl)benzyloxy)-4-amino-2-(3,4-dichlorophenyl)butan-2-ol], the IC50 in assay [1] lay within 1 to 100 nM; in assay [2] it was 100 to 300 nM.
For `CNCCC(C)(COCc1cc(C(F)(F)F)cc(C(F)(F)F)c1)c1ccccc1` (stereo not shown) [Example 75, 1-(3,5-bis(trifluoromethyl)benzyloxy)-4-methylamino-2-methyl-2-phenylbutane], the IC50 was 1 to 100 nM in assay [1] and 100 to 300 nM in assay [2].
`Cc1ccc(C(O)(CCN)COCc2cc(C(F)(F)F)cc(C(F)(F)F)c2)cc1` (stereo not shown) [Example 9, 1-(3,5-bis(trifluoromethyl)benzyloxy)-4-amino-2-p-tolylbutan-2-ol]: the IC50 in assay [1] and in assay [2] was 1 to 100 nM each time.
On to `NCCC(O)(COCc1cc(C(F)(F)F)cc(C(F)(F)F)c1)c1ccc(F)c(F)c1` (stereo not shown) [Example 15, 1-(3,5-bis(trifluoromethyl)benzyloxy)-4-amino-2-(3,4-difluorophenyl)butan-2-ol], for which the IC50 in assay [1] and in assay [2] was 1 to 100 nM throughout.
Take `NCCC(O)(COCc1ccc(C(F)(F)F)cc1)c1ccccc1` (stereo not shown) [Example 56, 1-(4-(trifluoromethyl)benzyloxy)-4-amino-2-phenylbutan-2-ol]: the IC50 in assay [1] is more than 300 nM; in assay [2], 100 to 300 nM.
Taken in the same sequence, the figures for `CCc1ccc(C(O)(CCN)COCc2cc(C(F)(F)F)cc(C(F)(F)F)c2)cc1` (stereo not shown) [Example 38, 1-(3,5-bis(trifluoromethyl)benzyloxy)-4-amino-2-(4-ethylphenyl)butan-2-ol] were 100 to 300 nM and 1 to 100 nM.
Turning to `CN(C)c1ccc(C(O)(CCN)COCc2cc(C(F)(F)F)cc(C(F)(F)F)c2)cc1` (stereo not shown) [Example 16, 1-(3,5-bis(trifluoromethyl)benzyloxy)-4-amino-2-(4-(dimethylamino)phenyl)butan-2-ol], the IC50 in assay [1] and in assay [2] was more than 300 nM each time.
As for `CNCC(O)(COCc1cc(C(F)(F)F)cc(C(F)(F)F)c1)c1ccccc1` (stereo not shown) [Example 3, 1-(3,5-bis(trifluoromethyl)benzyloxy)-3-(methylamino)-2-phenylpropan-2-ol], the 50% inhibitory concentration (IC50) fell in the range of 1 to 100 nM in assay [1] and 100 to 300 nM in assay [2].
In the same order, the values of `CC(CCN)(COCc1cc(C(F)(F)F)cc(C(F)(F)F)c1)c1ccccc1` (stereo not shown) [Example 74, 1-(3,5-bis(trifluoromethyl)benzyloxy)-4-amino-2-methyl-2-phenylbutane] are 1 to 100 nM and 1 to 100 nM.
Consider `NCCC(O)(COCc1ccc(Cl)cc1)c1ccccc1` (stereo not shown) [Example 70, 1-(4-chlorobenzyloxy)-4-amino-2-phenylbutan-2-ol], for which the values for the IC50 in assay [1] and in assay [2] were more than 300 nM and 1 to 100 nM, respectively.
In the same order, the values of `CN(C)CC(O)(COCc1cc(C(F)(F)F)cc(C(F)(F)F)c1)c1ccccc1` (stereo not shown) [Example 1, 1-(3,5-bis(trifluoromethyl)benzyloxy)-3-(dimethylamino)-2-phenylpropan-2-ol] are 1 to 100 nM and 100 to 300 nM.
On to `CN(C)CCC(O)(COCc1cc(C(F)(F)F)cc(C(F)(F)F)c1)c1ccccc1` (stereo not shown) [Example 5, 1-(3,5-bis(trifluoromethyl)benzyloxy)-4-(dimethylamino)-2-phenylbutan-2-ol], for which the IC50 was 1 to 100 nM in assay [1] and more than 300 nM in assay [2].
In the case of `Cc1cc(C)cc(COCC(O)(CCN)c2ccccc2)c1` (stereo not shown) [Example 53, 1-(3,5-dimethylbenzyloxy)-4-amino-2-phenylbutan-2-ol], the IC50 in assay [1] and in assay [2] was 1 to 100 nM throughout.
For `NCCC(O)(COCc1cc(C(F)(F)F)cc(C(F)(F)F)c1)c1cccc(F)c1` (stereo not shown) [Example 12, 1-(3,5-bis(trifluoromethyl)benzyloxy)-4-amino-2-(3-fluorophenyl)butan-2-ol], the IC50 in assay [1] and in assay [2] was 1 to 100 nM in each case.
On to `NCCC(O)(COCc1cc(C(F)(F)F)cc(C(F)(F)F)c1)c1cccc(Cl)c1` (stereo not shown) [Example 21, 1-(3,5-bis(trifluoromethyl)benzyloxy)-4-amino-2-(3-chlorophenyl)butan-2-ol], for which the half-maximal inhibitory concentration (IC50) in assay [1] and in assay [2] was 1 to 100 nM each time.
Turning to `NCCC(O)(COCc1ccc(Br)cc1)c1ccccc1` (stereo not shown) [Example 66, 1-(4-bromobenzyloxy)-4-amino-2-phenylbutan-2-ol], the half-maximal inhibitory concentration (IC50) in assay [1] is more than 300 nM; in assay [2] it was 100 to 300 nM.
Turning to `COc1ccccc1C(O)(CCN)COCc1cc(C(F)(F)F)cc(C(F)(F)F)c1` (stereo not shown) [Example 45, 1-(3,5-bis(trifluoromethyl)benzyloxy)-4-amino-2-(2-methoxyphenyl)butan-2-ol], the IC50 in assay [1] and in assay [2] was 1 to 100 nM throughout.
With `NCCC(O)(COCc1cc(Cl)cc(Cl)c1)c1ccccc1` (stereo not shown) [Example 61, 1-(3,5-dichlorobenzyloxy)-4-amino-2-phenylbutan-2-ol], the IC50 in assay [1] and in assay [2] was 1 to 100 nM each time.
`Cc1cc(C)cc(C(O)(CCN)COCc2cc(C(F)(F)F)cc(C(F)(F)F)c2)c1` (stereo not shown) [Example 18, 1-(3,5-bis(trifluoromethyl)benzyloxy)-4-amino-2-(3,5-dimethylphenyl)butan-2-ol]: the IC50 in assay [1] and in assay [2] was 1 to 100 nM each time.
For `NCCC(O)(COCc1cc(C(F)(F)F)cc(C(F)(F)F)c1)c1ccccc1` (stereo not shown) [Example 4, 1-(3,5-bis(trifluoromethyl)benzyloxy)-4-amino-2-phenylbutan-2-ol], the IC50 in assay [1] and in assay [2] was 1 to 100 nM each time.
`COc1ccc(C(O)(CCN)COCc2cc(C(F)(F)F)cc(C(F)(F)F)c2)cc1OC` (stereo not shown) [Example 39, 1-(3,5-bis(trifluoromethyl)benzyloxy)-4-amino-2-(3,4-dimethoxyphenyl)butan-2-ol]: the IC50 in assay [1] lay within 100 to 300 nM; in assay [2] it was 1 to 100 nM.
In the case of `NCCC(O)(COCc1cccc(Cl)c1)c1ccccc1` (stereo not shown) [Example 65, 1-(3-chlorobenzyloxy)-4-amino-2-phenylbutan-2-ol], the IC50 in assay [1] is more than 300 nM; in assay [2], 1 to 100 nM.
